# Source: US8518947B2, “(Heterocycle/tetrahydropyridine)-(piperazinyl)-1-alcanone and (heterocycle/dihydropyrrolidine)-(piperazinyl)-1-alcanone derivatives, and use thereof as p75 inhibitors” (Sanofi, priority 2009, dated 2013)
row,melting point,SMILES
1,177 to 178 °C,"O=C(CN1CCN(c2ccc3ccccc3n2)CC1)N1CC=C(c2cccc3ccsc23)CC1 [Compound 105, 1-(4-benzo[b]thiophen-7-yl-3,6-dihydro-2H-pyridin-1-yl)-2-(4-quinolin-2-ylpiperazin-1-yl)ethanone]"
2,90 to 91 °C,"O=C(CN1CCN(c2ccnc3cc(Cl)ccc23)CC1)N1CC=C(c2cccc3ccsc23)CC1 [Compound 106, 1-(4-benzo[b]thiophen-7-yl-3,6-dihydro-2H-pyridin-1-yl)-2-[4-(7-chloroquinolin-4-yl)piperazin-1-yl]ethanone]"
3,92 to 93 °C,"O=C(CN1CCN(c2cccc(Cl)n2)CC1)N1CC=C(c2cccc3ccsc23)CC1 [Compound 107, 1-(4-benzo[b]thiophen-7-yl-3,6-dihydro-2H-pyridin-1-yl)-2-[4-(6-chloropyridin-2-yl)piperazin-1-yl]ethanone]"
4,202 to 204 °C,"O=C(CN1CCN(c2cccc(Cl)n2)CC1)N1CC=C(c2c[nH]c3ccccc23)CC1 [Compound 108, 2-[4-(6-chloropyridin-2-yl)piperazin-1-yl]-1-[4-(1H-indol-3-yl)-3,6-dihydro-2H-pyridin-1-yl]ethanone]"
5,89 to 90 °C,"O=C(CN1CCN(c2ccc(Cl)c(Cl)n2)CC1)N1CC=C(c2cccc3ccsc23)CC1 [Compound 112, 1-(4-benzo[b]thiophen-7-yl-3,6-dihydro-2H-pyridin-1-yl)-2-[4-(5,6-dichloropyridin-2-yl)piperazin-1-yl]ethanone]"
6,80 to 81 °C,"O=C(CN1CCN(c2cccc(Br)n2)CC1)N1CC=C(c2cccc3ccsc23)CC1 [Compound 113, 1-(4-benzo[b]thiophen-7-yl-3,6-dihydro-2H-pyridin-1-yl)-2-[4-(6-bromopyridin-2-yl)piperazin-1-yl]ethanone]"
7,121 to 123 °C,"Cc1cc2cc(C3=CCN(C(=O)CN4CCN(c5cccc(C(F)(F)F)n5)CC4)CC3)ccc2s1 [Compound 116, 1-[4-(2-methylbenzo[b]thiophen-5-yl)-3,6-dihydro-2H-pyridin-1-yl]-2-[4-(6-trifluoromethylpyridin-2-yl)piperazin-1-yl]ethanone]"

# Further lines, the compound ahead of its results:
row,SMILES,melting point
1,"C[C@@H]1CN(c2ccc(Cl)cn2)C[C@H](C)N1CC(=O)N1CC=C(c2cccc3ccsc23)CC1 [Compound 101, 1-(4-benzo[b]thiophen-7-yl-3,6-dihydro-2H-pyridin-1-yl)-2-[(2S,6R)-4-(5-chloropyridin-2-yl)-2,6-dimethylpiperazin-1-yl]ethanone]",157 to 158 °C
2,"O=C(CN1CCN(c2ccc(C(F)(F)F)cn2)CC1)N1CC=C(c2c[nH]c3ccccc23)CC1 [Compound 109, 1-[4-(1H-indol-3-yl)-3,6-dihydro-2H-pyridin-1-yl]-2-[4-(5-trifluoromethylpyridin-2-yl)piperazin-1-yl]ethanone]",220 to 222 °C
3,"C[C@@H]1CN(c2ccc3ccccc3n2)C[C@H](C)N1CC(=O)N1CC=C(c2c[nH]c3ccccc23)CC1 [Compound 110, 2-((2S,6R)-2,6-dimethyl-4-quinolin-2-yl-piperazin-1-yl)-1-[4-(1H-indol-3-yl)-3,6-dihydro-2H-pyridin-1-yl]ethanone]",198 to 200 °C
4,"Cc1cc2cc(C3=CCN(C(=O)CN4CCN(c5ccc6ccccc6n5)CC4)CC3)ccc2s1 [Compound 114, 1-[4-(2-methylbenzo[b]thiophen-5-yl)-3,6-dihydro-2H-pyridin-1-yl]-2-(4-quinolin-2-ylpiperazin-1-yl)ethanone]",189 to 190 °C
5,"Cc1cc2cc(C3=CCN(C(=O)CN4CCN(c5ccnc6cc(Cl)ccc56)CC4)CC3)ccc2s1 [Compound 117, 2-[4-(7-chloroquinolin-4-yl)piperazin-1-yl]-1-[4-(2-methylbenzo[b]thiophen-5-yl)-3,6-dihydro-2H-pyridin-1-yl]ethanone]",90 to 93 °C
